Consider 1 substance from patent publication US20250099517A1, “Use of Lactobacillus reuteri Y7 strain for prevention or treatment of ocular diseases” (Taipei Medical University, priority 2023, published 2025).

Assay [1] concerns MCP-1, IL-18, NLRP3, NF-KB p65, Caspase1 gene expression. In words: q-PCR of inflammation-related gene expression in eyes. In kind it is in vivo, C57BL/6 mice. To be noted: for gene expression of MCP-1 compared with the BL group / gene expression of NF-KB p65 compared with the BL group: p<0.05; for gene expression of Caspase1 / gene expression of IL-18 / gene expression of NLRP3: versus increase in BL group. Here is the method:
The C57BL/6 mice, which weighed between 23 and 25 g, were divided into seven groups randomly. In each group, the six mice induced by blue light successfully were incorporated in experiments. The samples dissolved in deuterium-depleted water (DDW) were fed to mice through oral tubes once a day. The groups were named and introduced as follows: • (1) Solvent not classified group (NC): The mice were fed with 0.2 ml deuterium-depleted water (DDW) through tubes; • (2) Negative control group (Blue light (BL)): The mice were fed with 0.2 ml deuterium-depleted water (DDW) through tubes and exposed to blue light; • (3) Low-dosage Y7 probiotics group […]): The mice were fed with low-dosage Y7 probiotics (probiotic counts of 1.0×10^8 CFU/ml dissolved in 0.2 ml DDW per day) and exposed to blue light; • (4) High-dosage Y7 probiotics group […]): The mice were fed with high-dosage Y7 probiotics (probiotic counts of 1.0×10^9 CFU/ml dissolved in 0.2 ml DDW per day) and exposed to blue light; • (5) Positive control group (lutein (LU)): The mice were fed with lutein and exposed to blue light. The recommended human dosage of lutein is 30 mg. The mouse cage (48×25×20 cm) placed inside a stainless ventilated box was equipped with blue light boards as blue light sources around and above. In the experiment of animals exposed to blue light, six-week-old mice staying in the mouse cage were fed with drinking water as well as fodders and exposed to 400 Lux blue light illumination under the light-dark cycle of 12-hour light and 12-hour dark. The experiment was aimed at causing mice' late dry macular disease induced by chronic light injuries for simulating a human being's macular disease after long-term exposure to short-wavelength blue light from 3C products in daily life. The eyes of a mouse sacrificed were collected for the following purposes. RNAs extracted with Trizol were reverse-transcribed to cDNAs. Then, the real-time quantitative polymerase chain reaction was enabled to detect gene expressions related to inflammatory hormones and apoptosis such as TNF-α, IL-1B, IL-6, Bax, Bcl-2, Caspase1, Caspase3 and NLRP3 for comparisons with the endogenous level of β-actin, GAPDH or 18S rRNA. [table] The gene expressions related to a mouse's ocular inflammation, for example, MCP-1 (FIG. 8a), IL-18 (FIG. 8b), NLRP3 (FIG. 8c), NF-KB p65 (FIG. 8d), Caspase1 (FIG. 8e), TNF-α (FIG. 8f), IL-6 (FIG. 8g) and IL-1β (FIG. 8h), were analyzed in the experiment. […] In summary, the intervention of Y7 probiotics relieved ocular inflammation attributed to blue light.

The test system of assay [2] is catalase (CAT). In words: serum antioxidant enzyme activity by ELISA: CAT. In kind it is in vivo, C57BL/6 mice. The procedure:
The C57BL/6 mice, which weighed between 23 and 25 g, were divided into seven groups randomly. In each group, the six mice induced by blue light successfully were incorporated in experiments. The samples dissolved in deuterium-depleted water (DDW) were fed to mice through oral tubes once a day. The groups were named and introduced as follows: • (1) Solvent not classified group (NC): The mice were fed with 0.2 ml deuterium-depleted water (DDW) through tubes; • (2) Negative control group (Blue light (BL)): The mice were fed with 0.2 ml deuterium-depleted water (DDW) through tubes and exposed to blue light; • (3) Low-dosage Y7 probiotics group (Y7L): The mice were fed with low-dosage Y7 probiotics (probiotic counts of 1.0×10^8 CFU/ml dissolved in 0.2 ml DDW per day) and exposed to blue light; • (4) High-dosage Y7 probiotics group (Y7H): The mice were fed with high-dosage Y7 probiotics (probiotic counts of 1.0×10^9 CFU/ml dissolved in 0.2 ml DDW per day) and exposed to blue light; • (5) Positive control group (lutein (LU)): The mice were fed with lutein and exposed to blue light. The recommended human dosage of lutein is 30 mg.
The mouse cage (48×25×20 cm) placed inside a stainless ventilated box was equipped with blue light boards as blue light sources around and above. […]
The performance of antioxidant enzymes in serums was analyzed through the enzyme-linked immunosorbent assay (ELISA).
(In an ELISA, binding on a coated surface is turned into a signal by an enzyme label.)

Turning to “Lactobacillus reuteri Y7 [Y7 probiotics]”, in assay [1] (Y7H high-dosage group), the “gene expression of MCP-1 compared with the BL group” value is “reduced significantly”, the “gene expression of NF-KB p65 compared with the BL group” value is reported as “reduced significantly”, the “gene expression of Caspase1” value is “decreased” and the “gene expression of IL-18” value was “decreased”. Further, the “gene expression of NLRP3” value in assay [1] (Y7H high-dosage group) is listed as “decreased”. For the same substance, in assay [1] (Y7L low-dosage group), the “gene expression of MCP-1 compared with the BL group” value is “reduced significantly”, the “gene expression of NF-KB p65 compared with the BL group” value is reported as “reduced significantly”, the “gene expression of Caspase1” value is on record as “decreased” and the “gene expression of IL-18” value is reported as “decreased”. Further, the “gene expression of NLRP3” value in assay [1] (Y7L low-dosage group) is reported as “decreased”. Moreover, the “activity of catalase (CAT) compared with the BL group” value in assay [2] (Y7H high-dosage group) is listed as “increased significantly”. Besides, the “activity of catalase (CAT) compared with the BL group” value in assay [2] (Y7L low-dosage group) is “increased significantly”.
